Source: patent US10189863B2, “5,6-dihydro-4H-benzo[b]thieno-[2,3-d]azepine derivatives” (PULMOCIDE LIMITED, priority 2014, dated 2019)

What was measured:
[1] = Cell viability: resazurin assay; type: cell-based, human; settings: human, HEp2 cells
Method in brief: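 Viability read-out: resazurin fluorescence (ex 545, em 590 nm) after 6 h, following 5-day compound incubation of HEp2 cells (37 °C, 5% CO2, 5% FBS, 0.5% DMSO final). Loss expressed as percentage of vehicle, negative if viability rose; CC50 derived from concentration-response curve where appropriate.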

RSV A2 strain = assay: Assessment of RSV induced CPE in HEp2 cells (RSV A2 strain); type: cell-based; settings: human respiratory syncytial virus, HEp2 cells; for IC50: HEp-2, 120 h, 1 MOI, 5 days, read-out: RSV A2 CPE IC50; for inhibition at 0.1 µg/mL / inhibition at 0.01 µg/mL: HEp-2; for inhibition at 0.1 µg/mL: Inhibition (%) at 0.1 μg/mL, read-out: RSV A2 CPE % Inhibition; for inhibition at 0.01 µg/mL: Inhibition (%) at 0.01 μg/mL
Method in brief: (§1)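 HEp2 cells were infected at MOI 1 with RSV A2 or RSV B Washington, with compound added at the same time (0.5% DMSO final). Incubation was 5 days for A2 and 6 days for B, then viability was read by resazurin fluorescence (545/590 nm) after 6 h. IC50, IC75 and IC90 came from concentration-response curves.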

RSV B Washington strain = assay: Assessment of RSV induced CPE in HEp2 cells (RSV B Washington strain); type: cell-based; settings: human respiratory syncytial virus, HEp2 cells; for IC50: HEp-2, 144 h, 1 MOI, 6 days, read-out: RSV B CPE IC50; for inhibition at 1 µg/mL: HEp-2, Inhibition (%) at 1 μg/mL, read-out: RSV B CPE % Inhibition
Method in brief: as §1

Structure (SMILES)	IC50 (RSV A2 strain) [nM]	IC50 (RSV B Washington strain) [nM]	CC50 at 5 days [1] [µM]	inhibition at 0.1 µg/mL (RSV A2 strain) [%]	inhibition at 1 µg/mL (RSV B Washington strain) [%]	inhibition at 0.01 µg/mL (RSV A2 strain) [%]
Cc1cnc(N2CC3(CCOCC3)C2)c(C(=O)Nc2ccc(C(=O)N3CCc4cc(C(=O)Nc5c(F)cccc5C5CC5)sc4-c4ccccc43)cc2)c1 [Example 7, N-(2-Cyclopropyl-6-fluorophenyl)-6-(4-(5-methyl-2-(7-oxa-2-azaspiro[3.5]nonan-2-yl)nicotinamido)benzoyl)-5,6-dihydro-4H-benzo[b]thieno[2,3-d]azepine-2-carboxamide]	0.15	98.6	> 13.5	100	94	–
O=C(Nc1ccc(Cl)cc1F)c1cc2c(s1)-c1ccccc1N(C(=O)c1ccc(NC(=O)c3cccnc3N3CC4(CCOCC4)C3)cc1)CC2 [Example 21, 6-(4-(2-(7-oxa-2-azaspiro[3.5]nonan-2-yl)nicotinamido)benzoyl)-N-(4-chloro-2-fluorophenyl)-5,6-dihydro-4H-benzo[b]thieno[2,3-d]azepine-2-carboxamide]	1.3	100	> 13.8	100	73	–
O=C(Nc1c(F)cccc1Cl)c1cc2c(s1)-c1ccccc1N(C(=O)c1ccc(NC(=O)c3cccnc3N3CC4(CCOCC4)C3)cc1F)CC2 [Example 31, 6-(4-(2-(7-oxa-2-azaspiro[3.5]nonan-2-yl)nicotinamido)-2-fluorobenzoyl)-N-(2-chloro-6-fluorophenyl)-5,6-dihydro-4H-benzo[b]thieno[2,3-d]azepine-2-carboxamide]	0.1	49.6	> 13.5	100	90	–
O=C(Nc1ccccc1F)c1cc2c(s1)-c1ccccc1N(C(=O)c1ccc(NC(=O)c3cccnc3N3CC4(CCOCC4)C3)cc1F)CC2 [Example 29, 6-(4-(2-(7-oxa-2-azaspiro[3.5]nonan-2-yl)nicotinamido)-2-fluorobenzoyl)-N-(2-fluorophenyl)-5,6-dihydro-4H-benzo[b]thieno[2,3-d]azepine-2-carboxamide]	0.13	27.9	> 14.2	97	73	–

More lines, main results first:

IC50 (RSV A2 strain) [nM]	IC50 (RSV B Washington strain) [nM]	Structure (SMILES)	CC50 at 5 days [1] [µM]	inhibition at 0.1 µg/mL (RSV A2 strain) [%]	inhibition at 1 µg/mL (RSV B Washington strain) [%]	inhibition at 0.01 µg/mL (RSV A2 strain) [%]
2.4	1.3	Cc1cccc(F)c1NC(=O)c1cc2c(s1)-c1ccccc1N(C(=O)c1ccc(NC(=O)c3cc4c(nc3N3CC5(CCOCC5)C3)CCC4)cc1F)CC2 [Example 78, 6-(4-(2-(7-oxa-2-azaspiro[3.5]nonan-2-yl)-6,7-dihydro-5H-cyclopenta[b]pyridine-3-carboxamido)-2-fluorobenzoyl)-N-(2-fluoro-6-methylphenyl)-5,6-dihydro-4H-benzo[b]thieno [2,3-d]azepine-2-carboxamide]	> 13.2	–	94	89
1.1	10.1	Cc1cnc(N2CC3(CCOCC3)C2)c(C(=O)Nc2ccc(C(=O)N3CCc4cc(C(=O)Nc5c(F)cccc5C#N)sc4-c4ccccc43)cc2)c1 [Example 51, N-(2-cyano-6-fluorophenyl)-6-(4-(5-methyl-2-(7-oxa-2-azaspiro[3.5]nonan-2-yl)nicotinamido)benzoyl)-5,6-dihydro-4H-benzo[b]thieno[2,3-d]azepine-2-carboxamide]	> 13.8	98	99	–
1.3	393	Cc1cnc(N2CCC3(CC2)COC3)c(C(=O)Nc2ccc(C(=O)N3CCc4cc(C(=O)Nc5c(C)cccc5F)sc4-c4ccccc43)cc2)c1 [Example 91, N-(2-fluoro-6-methylphenyl)-6-(4-(5-methyl-2-(2-oxa-7-azaspiro[3.5]nonan-7-yl)nicotinamido)benzoyl)-5,6-dihydro-4H-benzo[b]thieno[2,3-d]azepine-2-carboxamide]	> 14	–	100	100
